Data taken from patent US9284303B2, “Benzimidazole cannabinoid agonists bearing a substituted heterocyclic group” (priority 2006, dated 2016).
Where two headings read alike, the source gives them in different places.

How the values were obtained:
[1] = biological target: T1, human CB1 (hCB1) receptor (Homo sapiens, UniProt P21554); assay: Inhibition of forskolin-activated cAMP production upon activation of hCB1 (HTRF), CHO-K1 cells; type: cell-based; conditions: CB1 pEC50, hCB1-CHO-K1 cells, forskolin-activated cAMP, pEC50=-log(EC50)
T1 construct: expressed in transfected cells; host or cells: CHO-K1
T1 sequence (P21554 whole entry): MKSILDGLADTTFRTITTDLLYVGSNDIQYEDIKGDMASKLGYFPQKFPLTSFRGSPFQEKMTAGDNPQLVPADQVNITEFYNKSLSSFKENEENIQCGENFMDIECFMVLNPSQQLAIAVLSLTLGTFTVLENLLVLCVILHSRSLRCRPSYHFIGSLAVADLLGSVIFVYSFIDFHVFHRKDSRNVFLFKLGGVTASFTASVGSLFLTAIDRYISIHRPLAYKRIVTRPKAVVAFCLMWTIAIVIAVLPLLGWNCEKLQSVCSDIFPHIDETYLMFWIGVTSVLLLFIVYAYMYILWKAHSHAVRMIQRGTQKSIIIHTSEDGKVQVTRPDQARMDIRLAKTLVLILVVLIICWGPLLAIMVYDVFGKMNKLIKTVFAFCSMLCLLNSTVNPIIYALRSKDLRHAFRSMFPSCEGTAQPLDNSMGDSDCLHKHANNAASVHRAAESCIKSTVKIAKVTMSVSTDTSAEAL
Procedure: (§1) Functional activity of the test compounds was assessed by measuring their potency to inhibit forskolin-activated cAMP production upon activation of the human CB1 (hCB1) or human CB2 (hCB2) receptor through homogenous time resolved fluorescence (HTRF) assays.
CHO-K1 cells stably transfected with either hCB1 or hCB2 were grown up to 80-90% confluence in T175 Falcon flasks in DMEM/NUT MIX F-12 culture medium complemented with 2% Solution A (5.10^6 IU/l penicillin G, 5 g/l streptomycin sulphate, 5.5 g/l pyruvate, 14.6 g/l L-glutamine, 1M NaOH) and 10% foetal calf serum. Before the experiments, medium was removed, cells were washed with PBS/EDTA (140 mM NaCl, 1 mM Naz-EDTA, 8 mM Na2HPO4.2H2O, 8.5 mM KH2PO4, 2.7 mM KCl, 21 mM glucose), resuspended in stimulation buffer (HBSS 1x, IBMX 1 mM, Hepes 5 mM, MgCl2 10 mM, BSA 0.1%, pH 7.4). Cells were diluted to a concentration of 8.10^5 cell/ml for hCB1 experiments and 10^6 cells/ml for hCB2 experiments. Assays were performed using the cAMP Dynamic HTRF kit (CIS bio international, France) according to the recommendations of the manufacturer.
For CB1, each well of a 96 flat bottom black polystyrene assay plate (Costar) was filled with 25 μl stimulation buffer containing 6 μM forskolin and either test compound (in 2% DMSO), 2% DMSO or 2 μM CP55490 (in 2% DMSO). Then, 25 μl of the diluted cells was added (20,000 cells/well). After 30 minutes incubation in dark at room temperature, 25 μl cAMP-XL665 and 25 μl anti-cAMP cryptate (both at a final dilution of 1/80) was added to the cells.
After equilibration of the reaction mixtures for 1 to 24 hours in dark at room temperature, fluorescence was measured at 665 nm and 620 nm using a Discovery microplate fluorescence counter (Perkin Elmer), and the signal ratio of 665 nm/620 nm was calculated. The signal ratios of the test compounds were expressed relative to the signal ratios of the DMSO control (maximal signal ratio, no inhibition of cAMP) and CP55490 or WIN55212-2 for hCB1 and hCB2, respectively (minimal signal ratio, maximal inhibition of cAMP). From the dose response curves generated for each test compound, the dose at which 50% of the maximal inhibition of cAMP level is observed (EC50, expressed in the Tables as pEC50=−log(EC50) values) and the level of inhibition reached with 10 μM of the test compound compared to CP55490 (for hCB1) or WIN55212-2 (for hCB2) was calculated.

[2] = biological target: T2, human CB2 (hCB2) receptor (Homo sapiens, UniProt P34972); assay: Inhibition of forskolin-activated cAMP production upon activation of hCB2 (HTRF), CHO-K1 cells; type: cell-based; conditions: for ratio CB2 agonism over CB1 agonism: Table C-1, selectivity hCB2 over hCB1; for EC50: forskolin-activated cAMP, pEC50=-log(EC50); for ratio CB2 over CB1 agonism: Table C-3, comparison of art compounds A to E with compounds of the invention
T2 construct: expressed in transfected cells; host or cells: CHO-K1
T2 sequence (P34972 whole entry): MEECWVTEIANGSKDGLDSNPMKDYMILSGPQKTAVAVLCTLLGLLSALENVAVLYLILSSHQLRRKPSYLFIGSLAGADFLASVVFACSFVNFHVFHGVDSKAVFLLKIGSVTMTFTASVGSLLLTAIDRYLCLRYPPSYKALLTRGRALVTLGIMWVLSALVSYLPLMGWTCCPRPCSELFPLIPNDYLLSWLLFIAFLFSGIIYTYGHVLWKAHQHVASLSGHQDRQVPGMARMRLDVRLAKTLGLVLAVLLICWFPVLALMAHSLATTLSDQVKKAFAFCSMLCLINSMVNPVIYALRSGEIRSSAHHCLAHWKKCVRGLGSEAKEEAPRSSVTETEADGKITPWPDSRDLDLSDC
Procedure: as §1
Before the experiments, medium was removed, cells were washed with PBS/EDTA (140 mM NaCl, 1 mM Naz-EDTA, 8 mM Na2HPO4.2H2O, 8.5 mM KH2PO4, 2.7 mM KCl, 21 mM glucose), resuspended in stimulation buffer (HBSS 1x, IBMX 1 mM, Hepes 5 mM, MgCl2 10 mM, BSA 0.1%, pH 7.4). Cells were diluted to a concentration of 8.10^5 cell/ml for hCB1 experiments and 10^6 cells/ml for hCB2 experiments. Assays were performed using the cAMP Dynamic HTRF kit (CIS bio international, France) according to the recommendations of the manufacturer.
Then, 20 μl of the diluted hCB2-CHO-K1 cells was added (20,000 cells/well). After 30 minutes incubation in dark at room temperature, 10 μl cAMP-XL665 and 10 μl anti-cAMP cryptate (both at a final dilution of 1/100) was added to the cells.

[3] = hCB2-CHO-K1 cells, read-out: CB2 pEC50 (converted)

SMILES | EC50 [1] | ratio CB2 agonism over CB1 agonism [2] | EC50 [2, 3] | ratio CB2 over CB1 agonism [2] | ratio CB2 agonism over CB1 agonism ([2]; listed as 63) | EC50 ([2]; CB2 pEC50, hCB2-CHO-K1 cells) | ratio CB2 agonism over CB1 agonism ([2]; listed as 64)
CC(C)(C)c1nc2cc(S(=O)(=O)c3ccnc(OCCCN4CCOCC4)c3)ccc2n1CC1CCOCC1 [Co. No. 135] | > 10000 nM | >4571 | 2.19 nM | – | – | – | –
CC(C)(C)c1nc2cc(S(=O)(=O)c3ccnc(F)c3)ccc2n1CC1CCCCO1 (stereo not drawn) [Co. No. 113] | 794 nM | 302 | 2.63 nM | – | – | – | –
CC(=O)NCCCCc1cc(S(=O)(=O)c2ccc3c(c2)nc(C(C)(C)C)n3CC2CCOCC2)ccn1 [Co. No. 141] | > 10000 nM | >1792 | 5.62 nM | – | – | – | –
CC(C)(C)c1nc2cc(S(=O)(=O)c3ccoc3)ccc2n1CC1CCOCC1 [Co. No. D, reference compound] | – | – | – | 26 | – | – | –
CC(C)(C)c1nc2cc(S(=O)(=O)c3ccnc(/C=C\Cl)c3)ccc2n1CC1CCOCC1 [Co. No. 124] | > 10000 nM | >692 | 14.5 nM | – | – | – | –
COc1ccc(CNCCc2cc(S(=O)(=O)c3ccc4c(c3)nc(C(C)(C)C)n4CC3CCOCC3)ccn2)cc1 [Co. No. 157] | > 10000 nM | >2884 | 3.47 nM | – | – | – | –
CC(C)(C)c1nc2cc(S(=O)(=O)c3ccnc(F)c3)ccc2n1CC1CCOCC1 [Co. No. 25] | 407 nM | 495 | 0.813 nM | 495 | – | – | –
CC(C)(C)c1nc2cc(S(=O)(=O)c3sc(S(C)(=O)=O)cc3Br)ccc2n1CC1CCOCC1 [Co. No. 63] | 2820 nM | – | 0.977 nM | – | 2818 | – | –
CC(C)(C)c1nc2cc(S(=O)(=O)c3cccc(C(F)(F)F)n3)ccc2n1CC1CCOCC1 [Co. No. 110] | 1050 nM | 1905 | 0.55 nM | – | – | – | –
CC(C)(C)c1nc2cc(S(=O)(=O)c3ccc(C(=O)N4CCCC4)o3)ccc2n1CC1CCOCC1 [Co. No. 74] | 2090 nM | 668 | 3.16 nM | – | – | – | –
Cc1noc(C)c1S(=O)(=O)c1ccc2c(c1)nc(C(C)(C)C)n2CC1CCOCC1 [Co. No. 15] | 575 nM | 556 | 1.05 nM | – | – | – | –
CC(C)(C)c1nc2cc(S(=O)(=O)c3ccc(C(N)=O)cn3)ccc2n1CC1CCOCC1 [Co. No. 33] | 5750 nM | 1884 | 3.09 nM | – | – | – | –
COc1ncc(S(C)(=O)=O)cc1S(=O)(=O)c1ccc2c(c1)nc(C(C)(C)C)n2CC1CCOCC1 [Co. No. 78] | > 10000 nM | >1380 | 7.24 nM | – | – | – | –
C=Cc1cc(S(=O)(=O)c2ccc3c(c2)nc(C(C)(C)C)n3CC2CCOCC2)ccn1 [Co. No. 142] | 1350 nM | 1413 | 0.955 nM | – | – | – | –
CC(C)(C)c1nc2cc(S(=O)(=O)c3ccc(S(N)(=O)=O)s3)ccc2n1CC1CCOCC1 [Co. No. 47] | 1480 nM | 871 | 1.7 nM | – | – | – | –
CC(C)(C)c1nc2cc(S(=O)(=O)c3sc(S(C)(=O)=O)cc3Br)ccc2n1CC1CCOCC1 [Co. No. 64] | 1860 nM | – | – | – | – | 0.479 nM | 3920
CC(C)(C)c1nc2cc(S(=O)(=O)c3ccc(C(=O)O)cn3)ccc2n1CC1CCCCC1 [Co. No. 46] | 3890 nM | 3758 | 1.05 nM | – | – | – | –
COc1cc(S(=O)(=O)c2ccc3c(c2)nc(C(C)(C)C)n3CC2CCC(F)(F)CC2)ccn1 [Co. No. 122] | 100 nM | 102 | 0.977 nM | – | – | – | –
CC(C)(C)c1nc2cc([S+]([O-])c3cc[n+]([O-])cc3)ccc2n1CC1CCOCC1 (stereo not drawn) [Co. No. 2] | > 10000 nM | – | 38 nM | – | – | – | –

SMILES | EC50 [1] | ratio CB2 agonism over CB1 agonism [2] | EC50 [2, 3] | ratio CB2 over CB1 agonism [2] | ratio CB2 agonism over CB1 agonism ([2]; listed as 63) | EC50 ([2]; CB2 pEC50, hCB2-CHO-K1 cells) | ratio CB2 agonism over CB1 agonism ([2]; listed as 64)
CC(C)(C)c1nc2cc(S(=O)(=O)c3ccnc(C(F)(F)F)c3)ccc2n1CC1CCOCC1 [Co. No. 119] | > 10000 nM | >1413 | 7.08 nM | – | – | – | –
COC(=O)c1ccc(S(=O)(=O)c2ccc3c(c2)nc(C(C)(C)C)n3CC2CCCCC2)nc1 [Co. No. 35] | 32.4 nM | 79 | 0.407 nM | – | – | – | –
Cc1cccc(S(=O)(=O)c2ccc3c(c2)nc(C(C)(C)C)n3CC2CCOCC2)n1 [Co. No. 109] | 263 nM | 324 | 0.813 nM | – | – | – | –
Cc1[nH][n+]([O-])cc1[S+]([O-])c1ccc2c(c1)nc(C(C)(C)C)n2CC1CCOCC1 (stereo not drawn) [Co. No. 137] | 776 nM | – | 1.12 nM | – | – | – | –
CC(C)(C)c1nc2cc(S(=O)(=O)c3ccc[n+]([O-])c3)ccc2n1CC1CCOCC1 [Co. No. 34] | 7410 nM | 4732 | – | – | – | 1.58 nM | –
CC(=O)NCCCOc1cc(S(=O)(=O)c2ccc3c(c2)nc(C(C)(C)C)n3CC2CCOCC2)ccn1 [Co. No. 132] | > 10000 nM | >7079 | 1.41 nM | – | – | – | –
COc1cc(S(=O)(=O)c2ccc3c(c2)nc(C(C)(C)C)n3CC2CCOCC2)ccn1 [Co. No. 70] | 1410 nM | 2570 | 0.55 nM | – | – | – | –
CC(C)(C)c1nc2cc([S+]([O-])c3ccc(Cl)nn3)ccc2n1CC1CCOCC1 (stereo not drawn) [Co. No. 31] | 427 nM | 353 | 1.2 nM | – | – | – | –
CC(C)(C)c1nc2cc(S(=O)(=O)c3ccc(O)nc3)ccc2n1CC1CCCCC1 [Co. No. 39] | 2040 nM | 1216 | 1.7 nM | – | – | – | –
CC(C)(C)c1nc2cc(S(=O)(=O)c3cccnc3)ccc2n1CC1CCOCC1 [Co. No. B, reference compound] | – | – | – | 30 | – | – | –
CC(C)(C)OC(=O)NCCCOc1cc(S(=O)(=O)c2ccc3c(c2)nc(C(C)(C)C)n3CC2CCOCC2)ccn1 [Co. No. 130] | > 10000 nM | >4315 | 2.29 nM | – | – | – | –
CC(C)(C)c1nc2cc(S(=O)(=O)c3ccccn3)ccc2n1CC1CCOCC1 [Co. No. C, reference compound] | – | – | – | 36 | – | – | –
CC(C)(C)c1nc2cc(S(=O)(=O)c3ccnc(CCCCN)c3)ccc2n1CC1CCOCC1 [Co. No. 139] | > 10000 nM | >759 | 13.2 nM | – | – | – | –
CC(C)(C)c1nc2cc([S+]([O-])c3cc[n+]([O-])cc3Br)ccc2n1CC1CCOCC1 (stereo not drawn) [Co. No. 86] | > 10000 nM | – | 12 nM | – | – | – | –
CC(C)(C)c1nc2cc(S(=O)(=O)c3ccn(C(F)F)c(=O)c3)ccc2n1CC1CCOCC1 [Co. No. 83] | 407 nM | 209 | 2 nM | – | – | – | –
Cc1cc(S(=O)(=O)c2ccc3c(c2)nc(C(C)(C)C)n3CC2CCOCC2)ccn1 [Co. No. 13] | 2040 nM | 1622 | 1.26 nM | – | – | – | –
CC(C)(C)c1nc2cc(S(=O)(=O)c3ccnc(F)c3)ccc2n1CC1CCOC(=O)CC1 (stereo not drawn) [Co. No. 145] | > 10000 nM | >3090 | 3.24 nM | – | – | – | –
CC(C)(C)Cc1nc2cc(S(=O)(=O)c3ccncc3)ccc2n1CC1CCOCC1 [Co. No. E, reference compound] | – | – | – | 219 | – | – | –
CC(C)(C)c1nc2cc(S(=O)(=O)c3ccncc3)ccc2n1CC1CCOCC1 [Co. No. A, reference compound] | – | – | – | 215 | – | – | –
